27 molecules from patent US11168093B2, “Thienopyridine inhibitors of RIPK2” (Celgene Corporation, priority 2018, dated 2021) can be followed below.

The target of the test is RIPK2 enzyme (Homo sapiens (Human), UniProt O43353). The experiment in a line: RIPK2 inhibition assay, TR-FRET LanthaScreen Tracer 199 screening assay. The class given is binding. The following applies: 5 nM RIPK2 enzyme, Tracer 199 at 50 nM, Eu-anti-His Antibody at 2 nM, 1 hour incubation. The method, then:
All data was collected using a standard TR-FRET screening assay: LanthaScreen Tracer 199 at 50 nM, Eu-anti-His Antibody at 2 nM, 5 nM RIPK2 enzyme, and 1× Kinase Reaction Buffer. There was a 1 hour incubation prior to read. TR-FRET signal of the interaction (340Ex/665Em/615Em) was read at room temperature with standard setting. Background was subtracted of wells containing no enzyme. Percent inhibition was based on uninhibited controls log (inhibitor) vs. response. Variable slope equation was used with no constraints: Log Y=Bottom+(Top−Bottom)/(1+10^((Log IC50−X)*Hill Slope)).
The compound numbers correspond to the compound numbers above.
In general terms: In TR-FRET formats the signal depends on donor and acceptor labels being close together.

Each structure is given as a SMILES string.

Sequence of RIPK2 enzyme (O43353 whole entry): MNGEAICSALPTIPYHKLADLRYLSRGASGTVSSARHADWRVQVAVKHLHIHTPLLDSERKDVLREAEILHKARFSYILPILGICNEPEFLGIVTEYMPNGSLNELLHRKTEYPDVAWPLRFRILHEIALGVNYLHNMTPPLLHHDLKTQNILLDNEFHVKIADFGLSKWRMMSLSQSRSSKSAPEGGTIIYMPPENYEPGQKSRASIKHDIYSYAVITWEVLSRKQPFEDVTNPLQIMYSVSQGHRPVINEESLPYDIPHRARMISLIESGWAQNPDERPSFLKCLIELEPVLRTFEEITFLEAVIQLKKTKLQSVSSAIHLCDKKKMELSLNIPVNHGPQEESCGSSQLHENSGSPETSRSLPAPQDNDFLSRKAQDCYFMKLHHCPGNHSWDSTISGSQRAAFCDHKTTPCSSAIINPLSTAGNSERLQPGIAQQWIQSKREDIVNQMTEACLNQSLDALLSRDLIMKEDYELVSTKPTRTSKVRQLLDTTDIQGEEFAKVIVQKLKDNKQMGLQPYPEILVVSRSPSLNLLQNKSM

`CC(=O)N1CCCC(c2cc3c(Nc4ccc5scnc5c4)ccnc3s2)C1C` (stereo not drawn) [Example 10, 1-(3-(4-(benzo[d]thiazol-5-ylamino)thieno[2,3-b]pyridin-2-yl)-2-methylpiperidin-1-yl)ethan-1-one]: the IC50 is no more than 10 nM.

In turn, `COCC(=O)N1CCC=C(c2cc3c(Nc4ccc5scnc5c4)ccnc3s2)C1C` (stereo not drawn) [Example 11, 1-(5-(4-(benzo[d]thiazol-5-ylamino)thieno[2,3-b]pyridin-2-yl)-6-methyl-3,6-dihydro-pyridin-1(2H)-yl)-2-methoxyethan-1-one] displayed an IC50 of no more than 10 nM.

Molecule `COCCN1CCC=C(c2cc3c(Nc4ccc5scnc5c4)ccnc3s2)C1C` (stereo not drawn) [Example 12, N-(2-(1-(2-methoxyethyl)-2-methyl-1,2,5,6-tetrahydropyridin-3-yl)thieno[2,3-b]pyridin-4-yl)benzo[d]thiazol-5-amine] had an IC50 of no more than 10 nM.

Regarding `COCCN1CCC=C(c2cc3c(Nc4ccc5scnc5c4)ccnc3s2)[C@H]1C` [Example 12a, N-(2-(1-(2-methoxyethyl)-2-methyl-1,2,5,6-tetrahydropyridin-3-yl)thieno[2,3-b]pyridin-4-yl)benzo[d]thiazol-5-amine], the IC50 was no more than 10 nM.

For the molecule `COCCN1CCC=C(c2cc3c(Nc4ccc5scnc5c4)ccnc3s2)[C@@H]1C` [Example 12b, N-(2-(1-(2-methoxyethyl)-2-methyl-1,2,5,6-tetrahydropyridin-3-yl)thieno[2,3-b]pyridin-4-yl)benzo[d]thiazol-5-amine], the IC50 was no more than 10 nM.

As to `COCCN1CCCC(c2cc3c(Nc4ccc5scnc5c4)ccnc3s2)C1C` (stereo not drawn) [Example 13, N-(2-(1-(2-methoxyethyl)-2-methylpiperidin-3-yl)thieno[2,3-b]pyridin-4-yl)benzo[d]thiazol-5-amine], the concentration for half-maximal inhibition (IC50) was no more than 10 nM.

On to `CC1C(c2cc3c(Nc4ccc5scnc5c4)ccnc3s2)CCCN1CCF` (stereo not drawn) [Example 14, N-(2-(1-(2-fluoroethyl)-2-methylpiperidin-3-yl)thieno[2,3-b]pyridin-4-yl)benzo[d]thiazol-5-amine], for which the IC50 is no more than 10 nM.

The molecule `CC1C(c2cc3c(Nc4ccc5scnc5c4)ccnc3s2)CCCN1CC(F)F` (stereo not drawn) [Example 15, N-(2-(1-(2,2-difluoroethyl)-2-methylpiperidin-3-yl)thieno[2,3-b]pyridin-4-yl)benzo[d]thiazol-5-amine] registered an IC50 of 20 to 50 nM.

Turning to `CC1C(c2cc3c(Nc4ccc5scnc5c4)ccnc3s2)CCCN1C1COC1` (stereo not drawn) [Example 17, N-(2-(2-methyl-1-(oxetan-3-yl)piperidin-3-yl)thieno[2,3-b]pyridin-4-yl)benzo[d]thiazol-5-amine], the IC50 lay in the range of 10 to 20 nM.

On to `CC1C(c2cc3c(Nc4ccc5scnc5c4)ccnc3s2)CCCN1CCCN` (stereo not drawn) [Example 18, N-(2-(1-(3-aminopropyl)-2-methylpiperidin-3-yl)thieno[2,3-b]pyridin-4-yl)benzo[d]thiazol-5-amine], for which the IC50 is no more than 10 nM.

As to `CCOCCN1CCCC(c2cc3c(Nc4ccc5scnc5c4)ccnc3s2)C1C` (stereo not drawn) [Example 19, N-(2-(1-(2-ethoxyethyl)-2-methylpiperidin-3-yl)thieno[2,3-b]pyridin-4-yl)benzo[d]thiazol-5-amine], the IC50 was 10 to 20 nM.

Turning to `CC1C(c2cc3c(Nc4ccc5scnc5c4)ccnc3s2)CCCN1CCO` (stereo not drawn) [Example 20, 2-(3-(4-(benzo[d]thiazol-5-ylamino)thieno[2,3-b]pyridin-2-yl)-2-methylpiperidin-1-yl)ethan-1-ol], the IC50 was no more than 10 nM.

Regarding `c1cc(Nc2ccc3scnc3c2)c2cc(C3CCCN4CCCCC34)sc2n1` (stereo not drawn) [Example 21, N-(2-(octahydro-2H-quinolizin-1-yl)thieno[2,3-b]pyridin-4-yl)benzo[d]thiazol-5-amine], the IC50 was 20 to 50 nM.

For the molecule `CCC1C(c2cc3c(Nc4ccc5scnc5c4)ccnc3s2)CCCN1C` (stereo not drawn) [Example 23a, N-(2-(2-ethyl-1-methylpiperidin-3-yl)thieno[2,3-b]pyridin-4-yl)benzo[d]thiazol-5-amine], the IC50 was no more than 10 nM.

The molecule `CCC1C(c2cc3c(Nc4ccc5scnc5c4)ccnc3s2)CCCN1CC` (stereo not drawn) [Example 24, N-(2-(1,2-diethylpiperidin-3-yl)thieno[2,3-b]pyridin-4-yl)benzo[d]thiazol-5-amine] gave an IC50 of 10 to 20 nM.

In turn, `CC1NCC=C1c1cc2c(Nc3ccc4scnc4c3)ccnc2s1` (stereo not drawn) [Example 25, N-(2-(2-methyl-2,5-dihydro-1H-pyrrol-3-yl)thieno[2,3-b]pyridin-4-yl)benzo[d]thiazol-5-amine] came in with an IC50 of no more than 10 nM.

With `CC1NCCC1c1cc2c(Nc3ccc4scnc4c3)ccnc2s1` (stereo not drawn) [Example 26, N-(2-(2-methylpyrrolidin-3-yl)thieno[2,3-b]pyridin-4-yl)benzo[d]thiazol-5-amine], the IC50 is no more than 10 nM.

`CC1C(c2cc3c(Nc4ccc5scnc5c4)ccnc3s2)=CCN1C` (stereo not drawn) [Example 27, N-(2-(1,2-dimethyl-2,5-dihydro-1H-pyrrol-3-yl)thieno[2,3-b]pyridin-4-yl)benzo[d]thiazol-5-amine] returned an IC50 of no more than 10 nM.

In the case of `CC1C(c2cc3c(Nc4ccc5scnc5c4)ccnc3s2)CCN1C` (stereo not drawn) [Example 28, N-(2-(1,2-dimethylpyrrolidin-3-yl)thieno[2,3-b]pyridin-4-yl)benzo[d]thiazol-5-amine], the IC50 was no more than 10 nM.

As to `CCN1CCC(c2cc3c(Nc4ccc5scnc5c4)ccnc3s2)C1C` (stereo not drawn) [Example 30, N-(2-(1-ethyl-2-methylpyrrolidin-3-yl)thieno[2,3-b]pyridin-4-yl)benzo[d]thiazol-5-amine], the IC50 is no more than 10 nM.

Take `CC1C(c2cc3c(Nc4ccc5scnc5c4)ccnc3s2)CCN1CCO` (stereo not drawn) [Example 31, 2-(3-(4-(benzo[d]thiazol-5-ylamino)thieno[2,3-b]pyridin-2-yl)-2-methylpyrrolidin-1-yl)ethan-1-ol]: the IC50 is no more than 10 nM.

Consider `CC1(C)NCC=C1c1cc2c(Nc3ccc4scnc4c3)ccnc2s1` [Example 32, N-(2-(2,2-dimethyl-2,5-dihydro-1H-pyrrol-3-yl)thieno[2,3-b]pyridin-4-yl)benzo[d]thiazol-5-amine], for which the IC50 is no more than 10 nM.

`CC1(C)NCCC1c1cc2c(Nc3ccc4scnc4c3)ccnc2s1` (stereo not drawn) [Example 33, N-(2-(2,2-dimethylpyrrolidin-3-yl)thieno[2,3-b]pyridin-4-yl)benzo[d]thiazol-5-amine] yielded an IC50 of no more than 10 nM.

Molecule `CN1CC=C(c2cc3c(Nc4ccc5scnc5c4)ccnc3s2)C1(C)C` [Example 34, N-(2-(1,2,2-trimethyl-2,5-dihydro-1H-pyrrol-3-yl)thieno[2,3-b]pyridin-4-yl)benzo[d]thiazol-5-amine] yielded an IC50 of no more than 10 nM.

Consider `CN1CCC(c2cc3c(Nc4ccc5scnc5c4)ccnc3s2)C1(C)C` (stereo not drawn) [Example 35, N-(2-(1,2,2-trimethylpyrrolidin-3-yl)thieno[2,3-b]pyridin-4-yl)benzo[d]thiazol-5-amine], for which the IC50 lay within 10 to 20 nM.

In turn, `CCN1CCC(c2cc3c(Nc4ccc5scnc5c4)ccnc3s2)C1(C)C` (stereo not drawn) [Example 37, N-(2-(1-ethyl-2,2-dimethylpyrrolidin-3-yl)thieno[2,3-b]pyridin-4-yl)benzo[d]thiazol-5-amine] yielded an IC50 of no more than 10 nM.

In the case of `CC1(C)C(c2cc3c(Nc4ccc5scnc5c4)ccnc3s2)CCN1CCO` (stereo not drawn) [Example 38, 2-(3-(4-(benzo[d]thiazol-5-ylamino)thieno[2,3-b]pyridin-2-yl)-2,2-dimethylpyrrolidin-1-yl)ethan-1-ol], the IC50 is no more than 10 nM.

Broadly, the IC50 is the point on the concentration scale where inhibition reaches its midpoint.
